Assay [1] has as its system NCI-H358 cells. The assay can be described thus: NCI-H358 CTG proliferation assay (120 h) (NSCLC, G12C). Particulars: Homo sapiens. Format: cell-based. The method, then:
NCI-H358 cells (ATCC No. CRL-5807) are dispensed into black 384-well plates, flat and clear bottom (Greiner, PNr. 781091) at a density of 200 cells per well in 60 μl RPMI-1640 ATCC-Formulation (Gibco #A10491)+10% FCS (fetal calf serum). Cells are incubated overnight at 37° C. in a humidified tissue culture incubator at 5% CO2. Compounds (10 mM stock in DMSO) are added at logarithmic dose series using the ECHO acoustic liquid handler system (Beckman Coulter), normalizing for added DMSO and including DMSO controls. All compound treatments are performed in technical duplicates. For the TO time point measurement, untreated cells are analyzed at the time of compound addition. Plates are incubated for 120 h, and cell viability is measured using CellTiter-Glo luminescent cell viability reagent (Promega product code G7570). Viability (stated as percent of control) is defined as relative luminescence units RLU of each well divided by the RLU of cells in DMSO controls. IC50 values are determined from viability measurements by non-linear regression using a four-parameter model.
IC50 values of representative compounds according to the invention measured with these assays in the indicated cell lines are presented in Table 46.

Assay [2] concerns the target KRAS (G12D)::SOS1 protein-protein interaction (Homo sapiens (Human), UniProt P01116, G12D). The experiment in a line: KRAS::SOS1 AlphaScreen binding assay (KRAS G12D). Particulars: GDP. In a few lines:
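AlphaScreen assay with KRAS G12D (1-169, 6His/avi-tagged, 10 nM), GST-SOS1 564-1049 (5 nM) and GDP (10 μM) in PBS, 0.1% BSA, 0.05% Tween 20; compound up to 100 μM top concentration, eleven fivefold dilutions in duplicate. After 30 min, glutathione acceptor and streptavidin donor beads (10 μg/mL each) were added and signal read after a further 60 min at room temperature in the dark; IC50 from 4-parameter logistic fit.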
Background: Bead proximity is the source of the signal in Alpha formats.

In assay [3] the test system is Ba/F3 cells KRAS G12C. The assay can be described thus: Ba/F3 proliferation assay (KRAS G12C). The class given is cell-based. Particulars: Mus musculus, BaF3, 72 h, AlamarBlue viability. In a few lines: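 Ba/F3 cells retrovirally transduced with KRAS G12 mutant, puromycin-selected, grown IL-3-independent; seeded in RPMI-1640 + 10% FCS without IL-3. Logarithmic compound dose series in duplicate, 72 h at 37° C., AlamarBlue fluorescence as % of DMSO control; IC50 from four-parameter non-linear regression.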

pIC50: −log10 of the molar value.

As usually defined, the pIC50 is −log10 of the IC50, conventionally taken in molar units. High values mean a small IC50, low ones a large IC50.

Chain of KRAS (G12D)::SOS1 protein-protein interaction (P01116 other isoform, or with tags, fused parts or gaps G12D): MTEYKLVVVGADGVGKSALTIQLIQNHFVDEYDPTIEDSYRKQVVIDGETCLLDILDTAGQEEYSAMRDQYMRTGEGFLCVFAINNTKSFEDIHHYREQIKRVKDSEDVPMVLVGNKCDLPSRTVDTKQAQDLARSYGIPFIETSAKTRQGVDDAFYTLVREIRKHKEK

`CCn1c(=O)n([C@@H]2CCCOC2)c2nc(-c3onc4c3CCC[C@@]43CCCc4sc(N)c(C#N)c43)nc(OCC34CCCN3CCC4)c21` [I-34]: the figures for the pIC50 in assay [1], in assay [2] and in assay [3] were 6.32, 7.66 and 5.93, respectively.
`CCn1c(=O)n([C@@H]2CCCOC2)c2nc(-c3onc4c3CCC[C@@]43CCCc4sc(N)c(C#N)c43)nc(OCC3(CN4CCCC4)CC3)c21` [I-35]: the results for the pIC50 in assay [1], in assay [2] and in assay [3] were 6.63, 8.15 and 6.75, respectively.
As to `CCn1c(=O)n([C@@H]2CCCOC2)c2nc(-c3onc4c3CCC[C@@]43CCCc4sc(N)c(C#N)c43)nc(O[C@@H](C)C34CCCN3CCC4)c21` [I-36], the pIC50 in assay [1] is 7.42; in assay [2] it was 8.70; in assay [3], 7.51.
For the molecule `C[C@H](Oc1nc(-c2onc3c2CCC[C@@]32CCCc3sc(N)c(C#N)c32)nc2c1N(C)C(=O)CN2[C@@H]1CCOC1)[C@@H]1CCCN1C` [I-37], the pIC50 in assay [1] is 6.63; in assay [2], 8.10; in assay [3] it was 6.58.
For `C[C@H](Oc1nc(-c2onc3c2CCC[C@@]32CCCc3sc(N)c(C#N)c32)nc2c1ncn2[C@@H]1CCOC1)[C@@H]1CCCN1C` [I-38], the pIC50 in assay [1] is 8.05; in assay [2] it was 8.70; in assay [3], 7.48.
On the same counts, the results for `Cc1nc2c(O[C@@H](C)[C@@H]3CCCN3C)nc(-c3onc4c3CCC[C@@]43CCCc4sc(N)c(C#N)c43)nc2n1[C@@H]1CCOC1` [I-39] are 7.72, 9.00 and 7.62.
Turning to `Cc1cc2c(O[C@@H](C)[C@@H]3CCCN3C)nc(-c3onc4c3CCC[C@@]43CCCc4sc(N)c(C#N)c43)nc2n1[C@@H]1CCOC1` [I-40], the negative logarithm of the IC50 (pIC50) in assay [1] is 7.77; in assay [2], 8.70; in assay [3], 7.64.
Regarding `Cc1cn([C@@H]2CCOC2)c2nc(-c3onc4c3CCC[C@@]43CCCc4sc(N)c(C#N)c43)nc(O[C@@H](C)[C@@H]3CCCN3C)c12` [I-41], the negative-log IC50 (pIC50) in assay [1] is 6.53; in assay [2], 8.52; in assay [3], 6.91.
Take `Cc1nn([C@@H]2CCOC2)c2nc(-c3onc4c3CCC[C@@]43CCCc4sc(N)c(C#N)c43)nc(O[C@@H](C)[C@@H]3CCCN3C)c12` [I-42]: the negative logarithm of the IC50 (pIC50) in assay [1] is 7.68; in assay [2], 8.52; in assay [3] it was 7.77.
Turning to `C[C@H](Oc1nc(-c2onc3c2CCC[C@@]32CCCc3sc(N)c(C#N)c32)nc2c1cnn2[C@@H]1CCOC1)[C@@H]1CCCN1C` [I-43], the negative logarithm of the IC50 (pIC50) was 7.15 in assay [1], 8.70 in assay [2] and 7.49 in assay [3].
As for `C[C@@H]1COC[C@H](n2c(=O)n(C)c3c(O[C@@H](C)[C@@H]4CCCN4C)nc(-c4onc5c4CCC[C@@]54CCCc5sc(N)c(C#N)c54)nc32)C1` [I-44], the pIC50 is 8.15 in assay [1], 9.00 in assay [2] and 8.52 in assay [3].
For `C[C@H](Oc1nc(-c2onc3c2CCC[C@@]32CCCc3sc(N)c(C#N)c32)nc2c1n(C)c(=O)n2[C@@]12COC[C@@H]1C2)[C@@H]1CC[C@H](C)N1C` [I-45], the negative logarithm of the IC50 (pIC50) in assay [1] is 8.30; in assay [2], 9.00; in assay [3], 9.00.
Consider `CO[C@@H]1C[C@@H]([C@H](C)Oc2nc(-c3onc4c3CCC[C@@]43CCCc4sc(N)c(C#N)c43)nc3c2n(C)c(=O)n3[C@@]23COC[C@@H]2C3)N(C)C1` [I-46], for which the values for the pIC50 in assay [1], in assay [2] and in assay [3] were 8.22, 9.00 and 8.70, respectively.
Consider `C[C@H](Oc1nc(-c2onc3c2CCC[C@@]32CCCc3sc(N)c(C#N)c32)nc2c1COC[C@]21CCOC1)[C@@H]1CCCN1C` [I-54], for which the pIC50 in assay [1] is 8.52; in assay [2] it was 9.00; in assay [3], 8.70.
`C[C@H](Oc1nc(-c2onc3c2CCC[C@@]32CCCc3sc(N)c(C#N)c32)nc2c1CN(C1COC1)C[C@]21CCOC1)[C@@H]1CC[C@H](C)N1C` [I-55]: the pIC50 was 8.30 in assay [1], 9.00 in assay [2] and 8.52 in assay [3].
Take `C[C@H](Oc1nc(-c2onc3c2CCC[C@@]32CCCc3sc(N)c(C#N)c32)nc2c1CN(C1COC1)C[C@]21CCOC1)[C@@H]1CCCN1C` [I-56]: the pIC50 in assay [1] is 8.22; in assay [2], 9.00; in assay [3] it was 8.40.
As to `CO[C@H]1CCN(C)[C@@H]1[C@H](C)Oc1nc(-c2onc3c2CCC[C@@]32CCCc3sc(N)c(C#N)c32)nc2c1CN(C1COC1)C[C@]21CCOC1` [I-57], the figures for the negative-log IC50 (pIC50) in assay [1], in assay [2] and in assay [3] were 8.40, 9.00 and 8.52, respectively.
On the same counts, the results for `CO[C@@H]1C[C@@H]([C@H](C)Oc2nc(-c3onc4c3CCC[C@@]43CCCc4sc(N)c(C#N)c43)nc3c2CN(C2COC2)C[C@]32CCOC2)N(C)C1` [I-58] are 8.30, 9.00 and 8.40.
Consider `CO[C@H]1CCN(C)[C@@H]1[C@H](C)Oc1nc(-c2noc3c2CCC[C@@]32CCCc3sc(N)c(C#N)c32)nc2c1n(C)c(=O)n2[C@@H]1CCOC1` [II-1], for which the results for the pIC50 in assay [1], in assay [2] and in assay [3] were 8.40, 9.00 and 8.40, respectively.
Consider `C[C@H](Oc1nc(-c2noc3c2CCC[C@@]32CCCc3sc(N)c(C#N)c32)nc2c1n(C)c(=O)n2[C@@H]1CCOC1)[C@@H]1CCCN1C` [II-2], for which the pIC50 in assay [1] is 8.40; in assay [2] it was 9.00; in assay [3], 8.40.
Regarding `CO[C@H]1CCN(C)[C@@H]1[C@H](C)Oc1nc(-c2noc3c2CCC[C@@]32CCCc3sc(N)c(C#N)c32)nc2c1n(C)c(=O)n2[C@@H]1CCCOC1` [II-3], the negative logarithm of the IC50 (pIC50) in assay [1] is 8.10; in assay [2], 8.70; in assay [3] it was 8.52.
On to `C[C@H](Oc1nc(-c2noc3c2CCC[C@@]32CCCc3sc(N)c(C#N)c32)nc2c1cnn2[C@@H]1CCOC1)[C@@H]1CCCN1C` [II-4], for which the pIC50 in assay [1] is 7.46; in assay [2] it was 9.00; in assay [3] it was 7.92.
On the same counts, the results for `C[C@H](Oc1nc(-c2noc3c2CCC[C@@]32CCCc3sc(N)c(C#N)c32)nc2c1n(C)c(=O)n2[C@H]1CO[C@@H](C)C1)[C@@H]1CCCN1C` [II-5] are 9.00, 9.00 and 9.00.
Consider `CO[C@@H]1C[C@@H]([C@H](C)Oc2nc(-c3noc4c3CCC[C@@]43CCCc4sc(N)c(C#N)c43)nc3c2n(C)c(=O)n3[C@@]23COC[C@@H]2C3)N(C)C1` [II-6], for which the negative logarithm of the IC50 (pIC50) in assay [1] is 8.52; in assay [2], 9.00; in assay [3], 8.70.
With `C[C@H](Oc1nc(-c2noc3c2CCC[C@@]32CCCc3sc(N)c(C#N)c32)nc2c1CN(c1ncccn1)[C@]21CCOC1)[C@@H]1CCCN1C` [II-7a], the negative logarithm of the IC50 (pIC50) in assay [1] is 7.74; in assay [2] it was 8.70; in assay [3], 8.00.
Consider `C[C@H](Oc1nc(-c2noc3c2CCC[C@@]32CCCc3sc(N)c(C#N)c32)nc2c1CN(c1ncccn1)[C@@]21CCOC1)[C@@H]1CCCN1C` [II-7b], for which the pIC50 is 6.97 in assay [1], 8.30 in assay [2] and 7.21 in assay [3].
In the same order, the values of `C[C@H](Oc1nc(-c2noc3c2CCC[C@@]32CCCc3sc(N)c(C#N)c32)nc2c1COC[C@]21CCOC1)[C@@H]1CCCN1C` [II-8] are 9.00, 9.00 and 8.70.
On the same counts, the results for `C[C@H](Oc1nc(-c2noc3c2CCC[C@@]32CCCc3sc(N)c(C#N)c32)nc2c1COC[C@@]21CCOC1)[C@@H]1CCCN1C` [II-9a] are 7.13, 8.70 and 7.08.
`C[C@H](Oc1nc(-c2noc3c2CCC[C@@]32CCCc3sc(N)c(C#N)c32)nc2c1CCO[C@]21CCOC1)[C@@H]1CCCN1C` [II-9b]: the results for the pIC50 in assay [1], in assay [2] and in assay [3] were 8.30, 9.00 and 8.30, respectively.
Take `C[C@H](Oc1nc(-c2noc3c2CCC[C@@]32CCCc3sc(N)c(C#N)c32)nc2c1CCCO[C@]21CCOC1)[C@@H]1CCCN1C` [II-10]: the negative-log IC50 (pIC50) in assay [1] is 8.30; in assay [2], 9.00; in assay [3], 8.15.
On the same counts, the results for `CO[C@@H]1C[C@@H]([C@H](C)Oc2nc(-c3noc4c3CCC[C@@]43CCCc4sc(N)c(C#N)c43)nc3c2COC[C@]32CCOC2)N(C)C1` [II-11] are 8.52, 9.00 and 9.00.
In the same order, the values of `C[C@H](Oc1nc(-c2noc3c2CCC[C@@]32CCCc3sc(N)c(C#N)c32)nc2c1CN(C1COC1)C[C@]21CCOC1)[C@@H]1CCCN1C` [II-12] are 8.40, 9.00 and 8.70.

Source of the values: US20250019385A1, “SPIROCYCLIC ANNULATED 2-AMINO-3-CYANO THIOPHENES AND DERIVATIVES FOR THE TREATMENT OF CANCER” (Boehringer Ingelheim International GmbH, priority 2023, published 2025).
